Measurements from paper PMC7932537, “Quantitative profiling of protease specificity” (PLoS Computational Biology, 2021).

Key:
[1] = test system: MMP-2; assay: Substrate phage display with NGS: relative probability (RP) of P3-P1' tetramer clusters; assay type: biochemical, human; conditions: for avg_RP: MMP2 - no binning, average relative probability of the tetramer, redundant tetramers averaged out; for MMP2 relative probability (RP): MMP2 tetramers from unique substrates, unrounded values; for relative probability (RP) of matching tetramer: P3-P1' tetramer matching the MS detected MMP2 cleavage sequence, RP_above_4.5
[2] = test system: MMP-9; assay: as above; assay type: biochemical, human; conditions: for corresponding MMP9 relative probability (RP): MMP2 tetramers from unique substrates, RP of same tetramer for MMP9
[3] = RP of the P3-P1' tetramer cluster contained in the hexamer, 200 nM MMP-2, 2 h, 37°C, two rounds of selection
[4] = MMP9, RP of the P3-P1' tetramer contained in the hexamer substrate (substrate phage display, NGS)
[5] = RP of the P3-P1' tetramer, MMP2 substrate phage display/NGS, tetramers of physiologic MEROPS substrates common to MMP2 and MMP9
[6] = RP of the P3-P1' tetramer, MMP9 substrate phage display/NGS, tetramers of physiologic MEROPS substrates common to MMP2 and MMP9
[7] = RP according to MMP2, P3-P1' tetramer of unique physiologic MMP2 substrates from MEROPS
[8] = RP according to MMP9, P3-P1' tetramer of unique physiologic MMP9 substrates from MEROPS
[9] = MMP2, RP of matching P3-P1' tetramer, common set of MMP2-9 selectome, RP above KL threshold
[10] = RP of matching tetramer, common MMP2-9 selectome
[11] = MMP9, RP of matching P3-P1' tetramer, common set of MMP2-9 selectome
[12] = MMP9, RP of the P3-P1' tetramer matching the MS detected cleavage, RP above 4.7, substrate phage display with NGS
[13] = RP of matching tetramer, common MMP2-9 selectome, RP above KL threshold

Substance: LAEL [P3-P1' tetramer cluster]
- avg_RP [1]: 27.078
- relative probability (RP) ([2]; tetramer projected onto MMP-9 cleavage sites determined by Prudova et al. (2010)): 0.44

Substance: QPPLPL
- relative probability (RP) [1, 3]: 35.0814
- relative probability (RP) [2, 4]: 49.0268

Substance: GKPVSM
- relative probability (RP) [1, 3]: 30.0644
- relative probability (RP) [2, 4]: 41.2029

Substance: PPGS
- relative probability (RP) (acc.to MMP2) [1, 5]: 0.1
- relative probability (RP) (acc.to MMP9) [2, 6]: 0.2

Substance: LGVM
- MMP2 relative probability (RP) [1]: 4.758
- Relative probability (RP) rank [1, 7]: 7712
- relative probability (RP) [1, 7]: 4.76
- relative probability (RP) (acc.to MMP2) [1, 5]: 4.76
- corresponding MMP9 relative probability (RP) [2]: 1.791
- Relative probability (RP) rank [2, 8]: 10648
- relative probability (RP) [2, 8]: 1.79
- relative probability (RP) (acc.to MMP9) [2, 6]: 1.79

Substance: ANPV
- relative probability (RP) (acc.to MMP2) [1, 5]: 0.04
- relative probability (RP) (acc.to MMP9) [2, 6]: 0.33

Substance: AAAL
- relative probability (RP) (acc.to MMP2) [1, 9]: 31.4
- relative probability (RP) of matching tetramer [1]: 31.4
- relative probability (RP) (acc.to MMP2) [1, 10]: 31.4
- relative probability (RP) ([1]; tetramer annotation of MMP-2 cleavage sites in all substrates from MEROPS): 31.4
- relative probability (RP) (acc.to MMP9) [2, 11]: 32.12
- relative probability (RP) [2, 12]: 32.12
- relative probability (RP) (acc.to MMP9) [2, 13]: 32.12

Substance: PMAM [P3-P1' tetramer cluster]
- avg_RP [1]: 30.2676
- relative probability (RP) ([2]; tetramer probability in MMP9 set / naive library, 200 nM protease, 2 h, 37°C): 51.1831

Substance: PQPEGL
- relative probability (RP) [1, 3]: 29.5031
- relative probability (RP) [2, 4]: 39.4116

Substance: PVPV
- relative probability (RP) (acc.to MMP2) [1, 9]: 23.04
- relative probability (RP) of matching tetramer [1]: 23.04
- relative probability (RP) (acc.to MMP2) [1, 10]: 23.04
- relative probability (RP) (acc.to MMP9) [2, 11]: 29.89
- relative probability (RP) [2, 12]: 29.89
- relative probability (RP) (acc.to MMP9) [2, 13]: 29.89

Substance: PSLQ
- MMP2 relative probability (RP) [1]: 7.654
- Relative probability (RP) rank [1, 7]: 6015
- relative probability (RP) [1, 7]: 7.65
- relative probability (RP) (acc.to MMP2) [1, 5]: 7.65
- corresponding MMP9 relative probability (RP) [2]: 1.544
- Relative probability (RP) rank [2, 8]: 11624
- relative probability (RP) [2, 8]: 1.54
- relative probability (RP) (acc.to MMP9) [2, 6]: 1.54

Substance: SPMAFS
- relative probability (RP) [1, 3]: 29.2698
- relative probability (RP) [2, 4]: 45.5118

Substance: PPPL
- relative probability (RP) (acc.to MMP2) [1, 9]: 13.03
- relative probability (RP) of matching tetramer [1]: 13.03
- relative probability (RP) (acc.to MMP2) [1, 10]: 13.03
- relative probability (RP) (acc.to MMP9) [2, 11]: 14.18
- relative probability (RP) [2, 12]: 14.18
- relative probability (RP) (acc.to MMP9) [2, 13]: 14.18

Substance: PFLI
- corresponding MMP2 relative probability (RP) ([1]; MMP9 tetramers from unique substrates, RP of same tetramer for MMP2): 22.6532
- MMP9 relative probability (RP) ([2]; MMP9 tetramers from unique substrates, unrounded values): 0.05937

Substance: NRPNNL
- relative probability (RP) [1, 3]: 27.0562
- relative probability (RP) [2, 4]: 38.7188

Substance: PMDIHA
- relative probability (RP) [1, 3]: 8.254
- relative probability (RP) [2, 4]: 39.7367

Substance: IPLASL
- relative probability (RP) [1, 3]: 31.1996
- relative probability (RP) [2, 4]: 34.6637

Substance: PSSV
- relative probability (RP) (acc.to MMP2) [1, 5]: 20.49
- relative probability (RP) (acc.to MMP9) [2, 6]: 25.16

Substance: PAPNSL
- relative probability (RP) [1, 3]: 24.6338
- relative probability (RP) [2, 4]: 34.9686

Substance: LAHA
- MMP2 relative probability (RP) [1]: 10.8276
- Relative probability (RP) rank [1, 7]: 4607
- relative probability (RP) [1, 7]: 10.83
- relative probability (RP) ([1]; tetramer annotation of MMP-2 cleavage sites in physiologic substrates from MEROPS): 10.83
- corresponding MMP9 relative probability (RP) [2]: 0.5961

Substance: NVARPM
- relative probability (RP) [1, 3]: 21.8664
- relative probability (RP) [2, 4]: 34.8794

Substance: PDGL
- relative probability (RP) (acc.to MMP2) [1, 10]: 6.23
- relative probability (RP) [2, 12]: 23.13
- relative probability (RP) (acc.to MMP9) [2, 13]: 23.13

Substance: PVAH
- relative probability (RP) (acc.to MMP2) [1, 10]: 24.82
- relative probability (RP) [2, 12]: 24.99
- relative probability (RP) (acc.to MMP9) [2, 13]: 24.99

Substance: AHNLSS
- relative probability (RP) [1, 3]: 23.7113
- relative probability (RP) [2, 4]: 29.6602

Substance: PVGMKG
- relative probability (RP) [1, 3]: 32.557
- relative probability (RP) [2, 4]: 44.5811

Substance: KSEL
- MMP2 relative probability (RP) [1]: 10.4091
- Relative probability (RP) rank [1, 7]: 4754
- relative probability (RP) [1, 7]: 10.41
- corresponding MMP9 relative probability (RP) [2]: 0.2037

Substance: AAAM
- relative probability (RP) (acc.to MMP2) [1, 9]: 23.42
- relative probability (RP) of matching tetramer [1]: 23.42
- relative probability (RP) (acc.to MMP9) [2, 11]: 23.49

Substance: PLAV
- relative probability (RP) (acc.to MMP2) [1, 9]: 29.15
- relative probability (RP) of matching tetramer [1]: 29.15
- relative probability (RP) (acc.to MMP2) [1, 10]: 29.15
- relative probability (RP) (acc.to MMP9) [2, 11]: 44.77
- relative probability (RP) [2, 12]: 44.77
- relative probability (RP) (acc.to MMP9) [2, 13]: 44.77

Substance: AKNL
- relative probability (RP) (acc.to MMP2) [1, 9]: 16.7
- relative probability (RP) of matching tetramer [1]: 16.7
- relative probability (RP) (acc.to MMP2) [1, 10]: 16.7
- relative probability (RP) (acc.to MMP9) [2, 11]: 32.82
- relative probability (RP) [2, 12]: 32.82
- relative probability (RP) (acc.to MMP9) [2, 13]: 32.82
